Results taken from patent US9599759B2, “Patterned polarizing film and its production process” (Sumitomo Chemical Company, Limited, priority 2014, dated 2017).

Test: Saturated solubility at 23° C. of each dichroic dye in certain solvents (LC quantification)
Assay type: physicochemical
Details: 24 hours agitation; for saturated solubility in ethanol: solvent ethanol; for saturated solubility in ethyl acetate: solvent ethyl acetate; for saturated solubility in isopropyl alcohol: solvent isopropyl alcohol; for saturated solubility in methanol: solvent methanol; for saturated solubility in propylene glycol 1-monomethyl ether 2-acetate: solvent propylene glycol 1-monomethyl ether 2-acetate; for saturated solubility in propylene glycol 1-monomethyl ether: solvent propylene glycol 1-monomethyl ether; for saturated solubility in tetrahydrofuran: solvent tetrahydrofuran
Procedure: [Measurement Method of Saturated Solubility]
This solution was sampled, and was dissolved together with 5 ml of a standard liquid in tetrahydrofuran to prepare a measurement solution. […] The standard liquid was prepared from 10 ml of hexylbenzene and 1000 ml of acetonitrile.
The liquid chromatograph (LC) measurement was carried out in the following condition.
Used column: KinetexC18, 2.6 μm, 100 mm×4.6 mm diameter
Column temperature: 40° C.
• (A liquid) 0.1%(v/v)—TFA/water • (B liquid) 0.1%(v/v)—TFA/acetonitrile 500/THF 50% • Gradient condition 0 min A liquid 60%, B liquid 40% • 30 min A liquid 0%, B liquid 100% • 35 min A liquid 0%, B liquid 100% • 35.1 min A liquid 60%, B liquid 40% • 45 min STOP TOTAL 45 min • Flow volume: 1.0 mL/min • Injection amount: 5 μL • Detection method: UV (254 nm)

saturated solubility in ethanol [% by mass]	saturated solubility in ethyl acetate [% by mass]	saturated solubility in isopropyl alcohol [% by mass]	saturated solubility in methanol [% by mass]	saturated solubility in propylene glycol 1-monomethyl ether 2-acetate [% by mass]	saturated solubility in propylene glycol 1-monomethyl ether [% by mass]	saturated solubility in tetrahydrofuran [% by mass]	SMILES
0.001	1.3	0.043	0.001	0.89	0.336	4.5	CCCCc1ccc(N=Nc2ccc(N=Nc3ccc(OCCC)cc3)cc2)cc1 [dichroic dye 2]
0.003	0.059	0.002	0.001	0.077	0.028	0.33	CCCCc1ccc(N=Nc2ccc(N=Nc3ccc(N4CCCC4)cc3)cc2)cc1 [dichroic dye 1]
